# Legend:
# [1] = tested on: human NSCLC NCI-H1703 cells xenograft; assay: Mouse Xenograft Model, combination therapy study (NCI-H1703); type: in vivo; settings: Male Scid mice
# Protocol: Male Scid mice were transplanted s.c. with human NSCLC NCI-H1703 cells (ATCC-CRL-5889) to determine the in-vivo anti-tumour activity of GLS inhibitors. 1×10^7 cells in 50% matrigel (BD Bioscience) were injected s.c. on the left flank of the animals.
# (§1) Animals were randomised into groups of 10-12 when tumours reached a volume of ˜200-300 mm^3 and treatment commenced. […] Tumours were measured twice weekly by calliper and volume of tumours calculated using elliptical formula (π/6×width×width×length). Statistical significance was evaluated using a one tailed, t-test. Taxotere® (Sanofi) was formulated in a physiological saline. Example 2 was formulated in a 1% Polysorbate 80 and pH adjusted with 1M HCL to a final pH concentration of pH3.5. Data is presented as mean tumour volume with calculated mean standard error bars.
# [2] = tested on: human NSCLC NCI-H3122 cells xenograft; assay: Mouse Xenograft Model, monotherapy (NCI-H3122); type: in vivo; settings: Female Harlan Nude mice, 50 mg/kg once daily peroral for 17 days, monotherapy (FIG. 2)
# Protocol: as §1, with “Female Harlan Nude mice were transplanted s.c. with human NSCLC NCI-H3122 cells to determine the in-vivo anti-tumour activity of GLS inhibitors. 5×10^6 cells in 50% matrigel (BD Bioscience) were injected s.c. on the left flank of the animals. Animals” for “Animals”, “10-15” for “10-12”, “t-test.” for “t-test. Taxotere® (Sanofi) was formulated in a physiological saline.”
compound,measurement,setting,value
"CO[C@H](C(=O)Nc1nnc(N[C@@H]2CCN(c3cccnn3)C2)s1)c1ccccc1 [Example 2(a), (2S)-2-Methoxy-2-phenyl-N-[5-[[(3R)-1-pyridazin-3-ylpyrrolidin-3-yl]amino]-1,3,4-thiadiazol-2-yl]acetamide]","Tumour growth (mean tumour volume), NCI-H1703 xenograft, combination with Taxotere",[1]; 100 mg/kg once daily peroral for 16 days in combination with once weekly intra-venous Taxotere (FIG. 3),slight regression compared to Taxotere® monotherapy treatment
same,"Tumour growth (mean tumour volume), NCI-H1703 xenograft, monotherapy","[1]; 100 mg/kg once daily peroral for 16 days, monotherapy (FIG. 3)",inhibition of growth in-vivo
same,"Tumour growth (mean tumour volume), NCI-H3122 xenograft",[2],inhibition of growth in-vivo

# From patent US10294221B2, “1, 3, 4-thiadiazole compounds and their use in treating cancer” (AstraZeneca AB, priority 2014, dated 2019)
